# Active and inactive are the calls of the source. The rule behind the calls is not given here.
# Key:
# Staphylococcus aureus [1] = assay: Minimum inhibitory concentration against methicillin resistant organism Staphylococcus aureus COL; assay type: functional
# Bacillus subtilis = assay: Minimum inhibitory concentration against Bacillus subtilis; assay type: functional
# Staphylococcus aureus [2] = assay: Minimum inhibitory concentration against methicillin sensitive organism Staphylococcus aureus 853; assay type: functional
# Staphylococcus aureus [3] = assay: Activity against methicillin sensitive organism Staphylococcus aureus 853 in presence of serum.; assay type: functional, organism-based
Compound,MIC (Staphylococcus aureus [1]) [µg/mL],MIC (Bacillus subtilis) [µg/mL],MIC (Staphylococcus aureus [2]) [µg/mL],MIC (Staphylococcus aureus [3])
CCC(C)C(=O)C(=O)NCCc1c(-c2cccnc2)[nH]c2ccccc12 (stereo unspecified),4,> 32,0.5,inactive
CCC(C)C(=O)C(=O)NCCn1c(-c2ccccc2)[n+](C)c2ccccc21.[I-] (stereo unspecified),–,> 32,> 32,inactive
CCC(C)C(=O)C(=O)NCCc1c[nH]c2ccccc12 (stereo unspecified),16,> 32,2,inactive
O=C1c2ccccc2C(=O)N1CCn1c(-c2ccccc2)nc2ccccc21,–,–,–,inactive
CCC(C)C(=O)C(=O)NCCc1c(-c2ccc[n+](C)c2)[nH]c2ccccc12.[I-] (stereo unspecified),–,> 32,> 32,inactive
CCC(C)C(=O)C(=O)NCCn1c(-c2ccccc2)nc2ccccc21 (stereo unspecified),16,> 32,8,inactive
O=C1c2ccccc2C(=O)N1CCc1c(-c2ccccc2)[nH]c2ccccc12,–,–,–,inactive
O=[N+]([O-])c1ccccc1F,–,–,–,inactive
O=C1c2ccccc2C(=O)N1CCn1cnc2ccccc21,–,–,–,inactive
CCC(C)C(=O)C(=O)NCCn1cnc2ccccc21 (stereo unspecified),–,> 32,> 32,inactive
CCC(C)C(=O)C(=O)NCCc1cn(Cc2ccccc2)c2ccccc12 (stereo unspecified),> 32,> 32,2,inactive
CCC(C)C(=O)C(=O)NCCn1c[n+](C)c2ccccc21.[I-] (stereo unspecified),–,> 32,> 32,inactive
CCC(C)C(=O)C(=O)NCCc1c(-c2ccc[n+](CC(N)=O)c2)[nH]c2ccccc12.[I-] (stereo unspecified),–,> 32,> 32,inactive
O=C1c2ccccc2C(=O)N1CCc1c[nH]c2ccccc12,–,–,–,inactive
O=C1c2ccccc2C(=O)N1CCc1c(-c2cccnc2)[nH]c2ccccc12,–,–,–,inactive
CCC(C)C(=O)C(=O)NCCc1c(-c2ccccc2)[nH]c2ccccc12 (stereo unspecified),0.06,8,< 0.03,inactive

# — ChEMBL document CHEMBL1133262, “Studies on the novel anti-staphyloccal compound nematophin” (2000)
